Measurements published in article PMC13110364, “Design, Synthesis, and Biological Evaluation of Novel Triazine‐Based Dual Histone Deacetylase/phosphatidylinositol 3‐kinase Inhibitors for Breast Cancer Therapy” (Chemmedchem, 2026).

How the values were obtained:
Type in all cases: biochemical
HDAC8 = HDAC8 (Homo sapiens, UniProt Q9BY41); assay: Selectivity profile, single dose 0.5 µM, HDAC8; details: remaining enzyme activity; single‐dose duplicate mode at 0.5 μM; read-out: Enzyme % activity (relative to DMSO controls) at 0.5 µM, HDAC8
Method: (§1) The inhibitory profiles of 5b and 5f were evaluated against selected HDAC isoforms (HDAC1, HDAC3, HDAC4, HDAC8, and HDAC10) and PI3K isoforms (PI3Kδ, PI3Kγ, and PI3Kβ) at a fixed concentration of 0.5 µM (Table 3). […] While we explored the phenyl ring in the linker region to achieve selectivity for the HDAC6 isoform, we still observed HDAC class I inhibition. […] It is important to highlight that PI3Kδ is mainly expressed in hematopoietic system and plays roles in leukocyte signaling, T‐cell activation, and immune cell trafficking. FDA‐approved drug idelalisib is a selective PI3Kδ inhibitor in B‐cell malignancies; however, this drug is also related to disruption of the immune system, which can lead to immune manifestations, such as infections. In addition, while isoform‐selective PI3K inhibitors are well tolerated, pan‐inhibition of PI3K is less expected that compensatory mechanisms by the action of other PI3Ks can take place. Thus, a more balanced profile of PI3K inhibition can lead to an overall lack of toxicity of PI3K inhibitors.

HDAC1 = HDAC1 (Homo sapiens, UniProt Q13547); assay: Selectivity profile, single dose 0.5 µM, HDAC1; details: remaining enzyme activity; single‐dose duplicate mode at 0.5 μM; read-out: Enzyme % activity (relative to DMSO controls) at 0.5 µM, HDAC1
Method: as §1

PI3Kγ = PI3Kγ (Homo sapiens, UniProt P48736); assay: Selectivity profile, single dose 0.5 µM, PI3Kγ; details: remaining enzyme activity; single‐dose duplicate mode at 0.5 μM; read-out: Enzyme % activity (relative to DMSO controls) at 0.5 µM, PI3Kγ
Method: as §1

Sequence of HDAC1 (Q13547 whole entry): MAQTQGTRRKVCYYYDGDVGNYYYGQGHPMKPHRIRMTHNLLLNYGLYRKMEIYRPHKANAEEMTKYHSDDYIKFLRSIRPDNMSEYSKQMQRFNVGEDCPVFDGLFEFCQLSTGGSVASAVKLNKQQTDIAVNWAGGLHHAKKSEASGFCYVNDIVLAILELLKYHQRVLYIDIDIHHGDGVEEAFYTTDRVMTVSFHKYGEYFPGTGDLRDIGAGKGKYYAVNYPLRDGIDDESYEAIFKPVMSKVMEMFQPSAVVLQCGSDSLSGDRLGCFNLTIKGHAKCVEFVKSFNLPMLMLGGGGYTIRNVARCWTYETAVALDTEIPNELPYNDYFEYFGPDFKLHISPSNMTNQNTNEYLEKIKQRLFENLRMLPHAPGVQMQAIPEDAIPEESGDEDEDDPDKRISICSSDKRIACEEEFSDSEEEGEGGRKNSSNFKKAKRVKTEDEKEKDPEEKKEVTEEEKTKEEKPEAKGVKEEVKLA
Sequence of HDAC8 (Q9BY41 whole entry, canonical isoform): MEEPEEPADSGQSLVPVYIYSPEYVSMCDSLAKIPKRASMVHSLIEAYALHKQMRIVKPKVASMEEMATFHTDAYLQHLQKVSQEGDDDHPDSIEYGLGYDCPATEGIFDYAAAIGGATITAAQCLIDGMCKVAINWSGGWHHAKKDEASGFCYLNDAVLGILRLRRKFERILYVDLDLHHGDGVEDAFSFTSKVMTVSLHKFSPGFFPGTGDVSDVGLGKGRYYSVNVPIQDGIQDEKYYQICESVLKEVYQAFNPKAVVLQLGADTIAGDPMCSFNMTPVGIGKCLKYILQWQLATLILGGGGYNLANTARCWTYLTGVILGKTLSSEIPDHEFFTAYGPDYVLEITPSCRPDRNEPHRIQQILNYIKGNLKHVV
Sequence of PI3Kγ (P48736 whole entry): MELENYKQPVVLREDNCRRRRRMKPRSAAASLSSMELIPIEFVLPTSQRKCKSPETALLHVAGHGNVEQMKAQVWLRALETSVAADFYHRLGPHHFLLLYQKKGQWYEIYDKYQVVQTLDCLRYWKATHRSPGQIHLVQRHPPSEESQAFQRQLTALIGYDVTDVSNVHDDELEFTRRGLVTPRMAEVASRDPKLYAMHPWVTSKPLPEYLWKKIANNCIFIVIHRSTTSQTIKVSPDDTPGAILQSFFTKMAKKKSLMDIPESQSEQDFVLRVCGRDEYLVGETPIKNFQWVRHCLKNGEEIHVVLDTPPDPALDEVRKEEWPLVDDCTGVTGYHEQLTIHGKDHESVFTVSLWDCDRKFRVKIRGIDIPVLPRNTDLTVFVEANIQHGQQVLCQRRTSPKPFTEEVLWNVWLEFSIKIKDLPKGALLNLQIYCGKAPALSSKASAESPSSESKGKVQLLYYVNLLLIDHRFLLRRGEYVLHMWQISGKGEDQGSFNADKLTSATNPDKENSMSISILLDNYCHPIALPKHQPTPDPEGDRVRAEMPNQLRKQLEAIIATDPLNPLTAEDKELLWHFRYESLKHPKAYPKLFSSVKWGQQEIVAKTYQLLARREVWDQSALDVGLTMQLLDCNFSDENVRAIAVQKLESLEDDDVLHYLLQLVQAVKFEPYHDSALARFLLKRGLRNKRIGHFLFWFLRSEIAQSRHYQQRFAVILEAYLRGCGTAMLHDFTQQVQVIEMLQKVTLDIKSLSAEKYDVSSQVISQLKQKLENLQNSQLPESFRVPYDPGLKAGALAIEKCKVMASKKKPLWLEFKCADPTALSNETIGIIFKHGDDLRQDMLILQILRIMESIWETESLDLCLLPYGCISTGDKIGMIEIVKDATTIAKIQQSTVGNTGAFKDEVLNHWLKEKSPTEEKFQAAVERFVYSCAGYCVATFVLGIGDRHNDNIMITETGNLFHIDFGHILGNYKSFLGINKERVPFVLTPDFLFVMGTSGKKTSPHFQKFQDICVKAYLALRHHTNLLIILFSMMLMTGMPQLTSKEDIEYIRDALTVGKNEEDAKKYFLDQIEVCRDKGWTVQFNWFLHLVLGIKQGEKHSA

remaining activity at 0.5 µM (HDAC8) [%]	remaining activity at 0.5 µM (HDAC1) [%]	remaining activity at 0.5 µM (PI3Kγ) [%]	SMILES
46.9	35.7	77.7	COc1ccc(-c2nc(NCc3ccc(C(=O)NO)cc3)nc(N3CCOCC3)n2)cn1 [Compound 5f, N‐Hydroxy‐4‐(((4‐(6‐Methoxypyridin‐3‐yl)‐6‐Morpholino‐1,3,5‐Triazin‐2‐yl)Amino)Methyl)Benzamide]
46.3	35.9	29.2	O=C(NO)c1ccc(CNc2nc(-c3cccc(O)c3)nc(N3CCOCC3)n2)cc1 [Compound 5b, N‐Hydroxy‐4‐(((4‐(3‐Hydroxyphenyl)‐6‐Morpholino‐1,3,5‐Triazin‐2‐yl)Amino)Methyl)Benzamide]
